Assays:
[1] = test system: small bowel motility / small intestinal transit; conditions: cited from earlier work
[2] = Example 4A: glucose tolerance test and cholesterol before and after antibiotic in single patients; assay type: in vivo, human
Description: After an administration of rifaximin at 550 mg, three times a day, the peak glucose was 161 mg/dL. Cholesterol for the same patient was 200 and then 171 after treatment. […] After an administration of neomycin at 500 mg, twice daily, the peak glucose was 121. Cholesterol was 202 before the treatment and was down to 178 after treatment.

[3] = test system: methane on breath testing; constipation symptoms; conditions: retrospective study; 10 days; cited from earlier work
[4] = test system: methane producers with constipation predominant IBS; conditions: placebo 5.0±5.1%; cited from earlier work

Compound	reduction of proximal small bowel motility (average) ([1]; 5 dogs, methane infused through mid-small bowel fistula) [%]	slowing of small intestinal transit ([1]; in vivo animal study, infusion of methane into the small intestine) [%]	cholesterol after treatment ([2]; Patient 1, rifaximin 550 mg three times a day, 200 before)	peak glucose on glucose tolerance test after treatment ([2]; Patient 1, rifaximin 550 mg three times a day, 260 before antibiotics) [mg/dL]	reduction in constipation symptoms [3] [%]	reduction in methane [3] [%]	peak glucose on glucose tolerance test after treatment ([2]; Patient 2, neomycin 500 mg twice daily, 154 before antibiotics)	cholesterol after treatment ([2]; Patient 2, neomycin 500 mg twice daily, 202 before)	improvement in constipation [4] [%]
C [methane]	59	59							
CO[C@H]1/C=C/O[C@@]2(C)Oc3c(C)c(O)c4c(O)c(c5c(nc6cc(C)ccn65)c4c3C2=O)NC(=O)/C(C)=C\C=C\[C@H](C)[C@H](O)[C@@H](C)[C@@H](O)[C@@H](C)[C@H](OC(C)=O)[C@@H]1C [rifaximin]			171	161	56	28			
neomycin					63	33	121	178	44.0±12.3

— US11235022B2, “Methods of diagnosis, selection, and treatment of diseases and conditions caused by or associated with methanogens” (Cedars-Sinai Medical Center, priority 2013, dated 2022)
